One data set has as its target T1, IKZF1 (Homo sapiens, UniProt Q13422+Q96SW2).
T1 construct: expressed in transfected cells; host or cells: HEK293T cells
In words: IKZF1 degradation in HEK293T cells co-transfected with wild-type or mutant CRBN. Format: cell-based.

Data set [1] has as its system MDA-MB-231 breast cancer cells. The data set is described as follows: Growth inhibition and pro-apoptotic activity in breast cancer cells treated with CRBN siRNA. The conditions noted are these: CRBN siRNA vs negative control. The format is cell-based. On the procedure:
Breast cancer cells (MDA-MB-231) were treated with CRBN siRNA or a negative control. Compound C was added at a concentration between 0 to 100 μM, and CRBN levels were assessed at 48 hours post treatment.
Compound C-mediated growth inhibition and pro-apoptotic activity were also assessed.

The target of data set [2] is T2, GSPT1 (Homo sapiens, UniProt P15170+Q96SW2, V100A).
T2 construct: endogenous in cells; host or cells: HEK293T cells
In words: GSPT1 degradation in HEK293T cells transfected with wild-type or mutant CRBN. Format: cell-based. The conditions noted are these: human WT CRBN. The text has this: (§1) A key feature of immunomodulatory drug biology is the striking resistance observed in rodent species. This feature was historically a confounding factor in establishing the efficacy and safety risks associated with thalidomide. It was shown that, in contrast to human cereblon, murine cereblon is unable to rescue immunomodulatory drug sensitivity. Chamberlain et al., Nature structural & mole. biol. 2014, 21:803-809. It was proposed that the molecular basis for this would lie in two variable residues on the cereblon surface proximal to the tri-Tryp pocket, E377V and V388I. […] Kronke et al., Nature 2015, 523:183-188. Despite the potent effect seen on human cells, murine cells are resistant to the antiproliferative and pro-apoptotic effects of Compound C (data not shown). […] The dependence of GSPT1 degradation upon E377 can be rationalized by the crystal structure: the side chain of E377 mediates hydrogen bond interactions with the urea moiety of Compound C.

Data set [3] has as its target T3, GSPT1 (Homo sapiens, UniProt P15170+Q96SW2).
T3 construct: endogenous in cells; host or cells: HEK293T cells
Described as above. Format: cell-based. As to conditions: murine CRBN V377E.
Source text: as §1

Data set [4] deals with T4, GSPT1 (Homo sapiens, UniProt P15170+Q96SW2, V100A/V388I).
T4 construct: endogenous in cells; host or cells: HEK293T cells
The data set is described as above. The conditions noted are these: human CRBN V388I. Format: cell-based.
Source text: as §1

Data set [5] concerns the target T5, GSPT1 (Homo sapiens, UniProt P15170+Q96SW2, E377V/V100A).
T5 construct: endogenous in cells; host or cells: HEK293T cells
The data set is described as above. Format: cell-based. The conditions noted are these: human CRBN E377V.
Source text: as §1

In a further data set the test system is CRBN-GSPT1. In words: Compound-induced interaction (in vitro binding) of CRBN with GSPT1. Set-up: species or system human. The text has this: (§2) FIG. 28A illustrates a full-length human GSPT1 and a truncated mutant form, which lacks the N-terminal 138 amino acid residues. […] Thus, the truncated mutant human GSPT1 maintained the functionality of the full-length protein and can be used in studies below.
(§3) To further map the essential amino acid residues in this 32-amino acid fragment of human GSPT1, various point mutations within the fragment were generated and tested for Compound C-induced degradation of GSPT1 and Compound C-induced interaction between CRBN and GSPT1. […] Among these homologues, only the yeast SUP35 is resistant to Compound C. […] Other mutations, […].

Data set [6] relates to human GSPT1 (G575N mutation). The data set is described as follows: Growth inhibition and activation of ATF4 and apoptosis pathways with GSPT1 G575N mutation. Format: cell-based.
In the next data set the target is CRBN (Homo sapiens, UniProt Q96SW2). The data set is described as follows: Thalidomide analog affinity bead competition assay in U266 cell extracts. Format: binding. Details: endogenous in cells; host or cells: U266 multiple myeloma cells (extract). The conditions noted are these: competition with thalidomide analog affinity beads. How it is done: (§4) Immunoblot analysis of extracts prepared from U266 multiple myeloma cells and pre-incubated with vehicle DMSO (D), Pomalidomide (Pom) or Compound C at the indicated concentrations, and bound to thalidomide analog affinity beads, washed and eluted with SDS buffer as previously described (Ito et al, 2010; Lopez-Girona et al, 2012). Samples were subjected to SDS-PAGE and immunoblot analysis using anti-CRBN 65-76 (1:10,000 dilution; Red signal) and anti-DDB1 (Cell Signaling) (1:2,000 dilution; Green signal). […] Cell proliferation assay of DF15 (sensitive), DF15R (resistant; CRBNnull) cells treated with a dose response of Compound C. Assays were done in triplicate and error bars represent s.d. Data for each cell line was normalized to treatment with vehicle (DMSO). […] Cell proliferation assay of DF15 (sensitive), DF15R (resistant; CRBNnull), DF15R-hCRBNWT (human CRBN), DF15R-RFP cells treated with a dose response of Compound C. […] Assays were done in triplicate and error bars represent s.d. Data for each cell line was normalized to treatment with vehicle (DMSO).
Coupling of thalidomide analog to FG-magnetic nanoparticle beads (Tamagawa Seiko Co. Tokyo, Japan) was carried out as described (Ito et al., Science, 2010. 327(5971):1345-50), and cell extract binding assays to these beads were performed with minor modifications. […]

The subject of the next data set is murine cells. In words: Antiproliferative and pro-apoptotic effects on murine cells. As to conditions: murine cells (data not shown). Format: cell-based.
Source text: as §1

For data set [7], the system named is DF15 / DF15R myeloma cells. The data set is described as follows: Cell proliferation assay of DF15, DF15R and DF15R re-expressing CRBN treated with Compound C. The format is cell-based. How it is done:
as §4

In data set [8] the target is T6, human GSPT1 (Homo sapiens, UniProt P15170, G437N).
T6 construct: expressed in transfected cells; host or cells: 293T HEK cells
In words: Compound-induced GSPT1 degradation by Western blot in 293T HEK cells. The format is cell-based. As to conditions: GSPT1 G575N mutation.
Source text: as §2
(§5) To determine the critical region in the human GSPT1 that contributes to the Compound C-induced degradation, a plethora of chimeric constructs containing various domains of human GSPT1 and yeast SUP35 were generated (FIG. 30A). These recombinant proteins were tested for Compound C-induced degradation by Western blot (FIGS. 30B-30D). As the results shown, a 32-amino acid fragment in the C-terminus of human GSPT1 (residues 562-593) is critical for Compound C-induced degradation.
as §3
For orientation: A western blot detects proteins with antibodies after separation by electrophoresis.

Data set [9] addresses T7, human GSPT1 (Homo sapiens, UniProt P15170).
T7 construct: expressed in transfected cells; host or cells: 293T HEK cells
The data set is described as above. As to conditions: full-length and truncated (lacking N-terminal 138 residues) GSPT1. Format: cell-based.
Source text: as §2, §5, §3

Data set [10] concerns H929 multiple myeloma cell line. In words: Apoptosis in multiple myeloma cell line H929. Format: cell-based. As to conditions: 0.01 nM to 1000 nM; assessed 24 hrs later. How it is done:
The multiple myeloma cell line, H929, was cultured and treated with Compound C or other CMA analogs at various concentrations from 0.01 nM to 1000 nM. Apoptosis was assessed at 24 hrs. later.

For another data set, the target named is yeast homologue SUP35 (Saccharomyces cerevisiae, UniProt P05453). The data set is described as follows: Compound-induced degradation of yeast homologue SUP35. The format is cell-based. The conditions noted are these: yeast SUP35, in contrast to human GSPT1.
Data set [11] has as its system TMD8 (ABC) or Karpas 422 (GCB) cells. In words: 3H-thymidine incorporation proliferation assay with lenalidomide co-treatment. As to conditions: co-treatment with 10 μM lenalidomide; 3H-thymidine incorporation. The format is cell-based. A general note: Dividing cells build labelled thymidine or BrdU into new DNA.
In data set [12] the test system is panel of tumor cell lines (B-lymphoma, breast, CNS, colon, kidney, leukemia, lung, melanoma, multiple myeloma, ovary, prostate). The data set is described as follows: Potency across a panel of tumor cell lines. Format: cell-based. On the procedure: The potency of Compound C was assessed across a panel of tumor cell lines, including B-lymphoma, breast, CNS, colon, kidney, leukemia, lung, melanoma, multiple myeloma, ovary and prostate.

As to `Cc1ccc(NC(=O)NCc2ccc3c(c2)CN(C2CCC(=O)NC2=O)C3=O)cc1Cl` (stereo not drawn) [Compound C, 1-(3-chloro-4-methylphenyl)-3-((2-(2,6-dioxopiperidin-3-yl)-1-oxoisoindolin-5-yl)methyl)urea], the IKZF1 degradation entry is “blocks the degradation of IKZF1” at IKZF1 (human CRBN V388I); “degradation of both IKZF1 and GSPT1” at IKZF1 (human WT CRBN). For the same compound, in data set [1], the “CRBN dependence of growth inhibition and pro-apoptotic activity” value is “CRBN is required for both inhibition and pro-apoptotic activity”. In addition, the GSPT1 degradation entry on GSPT1 [2] was “degradation of both IKZF1 and GSPT1”; at GSPT1 [3], “restores GSPT1 degradation”; at GSPT1 [4] it was “maintained”; on GSPT1 [5], “blocks the degradation of GSPT1”; on human GSPT1 [8], “blocked Compound C-induced degradation”; on human GSPT1 [9], “induced degradation of the full-length GSPT1 and the truncated form”. Also, in the data set on CRBN-GSPT1 (GSPT1 G575N mutation), the “interaction between CRBN and GSPT1” value is “blocked Compound C-induced interaction between CRBN and GSPT1”. Besides, in the data set with CRBN-GSPT1 (full-length and truncated GSPT1), the “interaction of CRBN with GSPT1” value is “induced interaction of CRBN with the full-length GSPT1 as well as the truncated GSPT1”. In data set [6], the “growth inhibition and downstream activation of ATF4 and apoptosis pathways” value was “blocked Compound C-induced growth inhibition and Compound C-induced downstream activation of ATF4 and apoptosis pathways”. Besides, the “binding to CRBN protein in MM cell extracts” value at CRBN is “binds CRBN protein”. Also, the “antiproliferative and pro-apoptotic effects” value in the data set with murine cells was “resistant”. Also, the “CRBN dependence of anti-proliferative activity” value in data set [7] (DF15 (sensitive) vs DF15R (CRBN null)) is “CRBN is required for the anti-proliferative activity”. Moreover, the “anti-proliferative activity after re-expression of human CRBN” value in [7] (DF15R-hCRBNWT) is listed as “rescues Compound C anti-proliferative activity”. For the same compound, the early apoptosis result in [10] is given as “induced early apoptosis”. Also, the SUP35 degradation entry at yeast homologue SUP35 is “did not exhibit Compound C-induced degradation”. Besides, the “anti-proliferative effects on co-treatment with lenalidomide” value in data set [11] was “blocks anti-proliferative effects”. The “Therapeutic Index” value in data set [12] (across the cancer cell panel) is on record as “overall low Therapeutic Index”. The “potency / activity in tumor cell lines” value in data set [12] (panel of tumor cell lines) was “potent across a panel of tumor lines”.

The values are drawn from patent publication US10830762B2, “Compositions and methods for inducing conformational changes in cereblon and other E3 ubiquitin ligases” (Celgene Corporation, priority 2015, dated 2020).
